Converted amounts (≈) assume the structure as drawn. “And” between values parts separate entries of the source, which are not always exact repeats. Equal entries are not always repeated. “Also recorded” adds a separate entry of the source. Where two headings read alike, the source gives them in different places. Values belong to the molecule of their own block, whether it stands above or below them.
What was measured:
[1] = target: nSMase; design: method as in PMID 21615386, PMID 17049336; settings: Enzyme source: Mouse brain; cited from earlier work
[2] = test system: nSMase; design: method as in PMID 21615386, PMID 17049336; settings: cited from earlier work
[3] = target: T1, human nSMase2 (Homo sapiens, UniProt Q9NY59); assay: Fluorescence (Amplex red coupled) nSMase2 activity assay; type: biochemical; design: Full length human nSMase2 cDNA with a C-terminal Flag tag; crude cell lysate used as enzyme; settings: for inhibition of human nSMase2 activity: 150 μM GW4869, 100 μM manumycin A, altenusin, zoledronic acid; for block of human nSMase2 activity: even at 100 μM
T1 sequence (Q9NY59 1-655): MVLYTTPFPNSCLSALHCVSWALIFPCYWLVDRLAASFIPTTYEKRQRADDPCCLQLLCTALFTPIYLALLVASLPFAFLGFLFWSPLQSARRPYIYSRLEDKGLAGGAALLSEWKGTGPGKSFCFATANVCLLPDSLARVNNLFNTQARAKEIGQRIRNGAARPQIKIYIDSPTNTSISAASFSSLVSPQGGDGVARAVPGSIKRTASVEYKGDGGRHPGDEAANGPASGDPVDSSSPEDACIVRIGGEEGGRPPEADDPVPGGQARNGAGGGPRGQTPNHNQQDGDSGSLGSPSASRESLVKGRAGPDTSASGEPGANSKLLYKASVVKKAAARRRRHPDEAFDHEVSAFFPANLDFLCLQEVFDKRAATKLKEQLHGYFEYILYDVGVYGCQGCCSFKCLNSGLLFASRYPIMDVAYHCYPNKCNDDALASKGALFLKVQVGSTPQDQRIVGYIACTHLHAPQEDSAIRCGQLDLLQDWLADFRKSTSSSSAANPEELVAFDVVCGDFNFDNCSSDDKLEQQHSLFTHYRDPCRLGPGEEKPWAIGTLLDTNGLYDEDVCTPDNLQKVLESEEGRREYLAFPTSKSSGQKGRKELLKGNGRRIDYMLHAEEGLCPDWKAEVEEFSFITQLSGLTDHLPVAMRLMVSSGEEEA
Description: The production of the latter was coupled to a dephosphorylation reaction catalyzed by alkaline phosphatase (4 U/ml) to produce choline, followed by oxidation of choline by choline oxidase (0.1 U/ml) to produce betaine and H2O2, which in the presence of horseradish peroxidase (HRP, 1U/ml) and 50 μM Amplex red, generates the fluorescent molecule resorufin (Life Technologies). Substrate stock solution was prepared in 2% Triton X-100, vortexed and sonicated for 30 min. Reactions were carried out for 1 h at 37°C in 100 mM Tris-HCl pH 7.4, 10 mM MgCl2, 0.2% Triton X-100 and the generation of the fluorescent product was monitored by measuring relative florescence units (RFU) with excitation at 530 nm and emission at 590 nm (Fig 1). This assay was optimized for 384-well format (50 μl total volume per well) based on linearity of the enzymatic activity with respect to time, as well as substrate and enzyme concentrations. […] This fluorescence assay was used for compound screening and IC50 value determinations, based on duplicate eight-point dose response curves.

[4] = test system: SIRT1; settings: cited from earlier work
[5] = test system: SIRT2; settings: cited from earlier work
[6] = test system: rat primary hippocampal neurons; assay: Hippocampal neuronal survival (Hoechst 33342); type: cell-based
Description: All animal procedures were approved by the Johns Hopkins University Animal Care and Use Committee. Primary hippocampal neurons were prepared from day 18 decapitated embryos of Sprague-Dawley rats following previously described methods. Cells were seeded on polyethyleneimine (PEI)-coated slides in 12-well plates and cultured between 14–21 days. […] After 18 h, cells were stained with 50 μg/ml Hoeschst 33342 for 20 min and then fixed with 4% paraformaldehyde for 30 min. The number of living and apoptotic cells was determined by fluorescence microscopy. A minimum of 500 cells were counted per treatment condition. Results were normalized to control untreated cells and were representative of at least two independent experiments conducted in triplicate. Statistical evaluation of the data was done by Student’s t-test.

[7] = target: T1, human nSMase2; assay: 14C-SM confirmatory direct activity assay; type: biochemical; design: Full length human nSMase2 cDNA with a C-terminal Flag tag; host or cells: HEK293, stably transfected; crude cell lysate used as enzyme
Description: This assay was dependent on the direct hydrolysis of ^14C-labeled SM (^14C N-methyl groups in the phosphorylcholine) by human nSMase2. Optimization of assay conditions was accomplished according to the methods of Barbone et al.. Briefly, bovine [N-methyl-^14C]-sphingomyelin (specific activity […], Perkin Elmer) and phosphatidylinositol (Avanti Polar Lipids) were evaporated to dryness under a stream of nitrogen and resuspended at an equimolar concentration of 0.1 mM in water with 0.5% Triton X-100 (Sigma). The solution was vortexed for 30 min and then sonicated for 30 min. Assay conditions were as follows: 50 μl total volume per reaction, consisting of 20 μM SM, reaction buffer (100 mM Tris-HCl pH 7.5, 80 mM MgCl2, 0.1% Triton X-100); 10 μl cell lysate containing recombinant human nSMase2 (0.5–1 μg protein/assay) and 5 μl of compound in reaction buffer containing 10% DMSO. After 1 h incubation at 37°C the reaction was terminated by the addition of 30 μl of water and 175 μl of chloroform/methanol (2:1, v:v), followed by vigorous vortexing. Tubes were centrifuged for 5 min at 10,000 xg at room temperature to separate the organic bottom phase containing labeled SM and the aqueous upper phase containing ^14C-labeled-phosphorylcholine. An aliquot (50 μl) of the upper phase was transferred to a vial with 10 ml of scintillant and counted for 2 min on a Beckman LS-6000IC scintillation counter. Enzyme activity was directly proportional to the disintegrations per min (dpm) resulting from the generation of ^14C-phosphorylcholine.

[8] = Solubility; type: physicochemical; settings: cambinol compared to GW4869
[9] = in DMSO; cited from earlier work
[10] = target: nSMase; design: method as in PMID 21615386, PMID 17049336; settings: cited from earlier work; remark: listed apart in the source

Structure (SMILES): CCCCCCCCCCC=NNC(=N)N [C11AG]
- IC50 [1]: 8 µM

Structure (SMILES): CCCC[C@@H](C)/C=C(C)/C=C(\C)C(=O)NC1=C[C@@](O)(/C=C/C=C/C=C/C(=O)NC2=C(O)CCC2=O)[C@@H]2O[C@@H]2C1=O [Manumycin A, reference compound]
- MOI [2]: Irreversible
- inhibition of human nSMase2 activity [3]: inhibition

- block of human nSMase2 activity [3]: not possible to block
Structure (SMILES): CC(NC(=O)c1ccccc1/N=C/c1c(O)ccc2ccccc12)c1ccccc1 (centres unmarked) [sirtinol, reference compound]
- neuron survival, Mean (normalized to control untreated cells) ([6]; 100 ng/ml TNFα, 40 µM compound): 60.73
- neuron survival, Mean (normalized to control untreated cells) ([6]; No TNFα, 40 µM compound): 53.3

Structure (SMILES): NC(=O)[C@H]1CCCCc2c1[nH]c1ccc(Cl)cc21 [CHIC-35, reference compound]
- IC50 [5]: 19.6 µM
- neuron survival, Mean (normalized to control untreated cells) ([6]; 100 ng/ml TNFα, 200 nM compound): 71.88
- neuron survival, Mean (normalized to control untreated cells) ([6]; No TNFα, 200 nM compound): 62.07
- block of human nSMase2 activity [3]: not possible to block
- IC50 ([3]; fluorescence nSMase2 assay (S2 Fig)): 70 µM

- IC50 ([7]; [14C]-SM direct activity assay, human recombinant enzyme): > 100 µM
Structure (SMILES): CCCCn1c(-c2ccccc2)c(Cc2c(O)ccc3ccccc23)c(=O)[nH]c1=S [compound 4]
- potency and specificity against SIRT 2 vs cambinol [5]: significantly improved
- human nSMase2 inhibitory activity of analog vs cambinol ([7]; SAR): loss of activity; also recorded: eliminated

Structure (SMILES): O=C(/C=C\c1ccc(/C=C\C(=O)Nc2ccc(C3=NCCN3)cc2)cc1)Nc1ccc(C2=NCCN2)cc1 [GW4869, reference compound]
- aqueous solubility [8]: low
- modulation of enzymatic activity (Fig 3C raw data) ([3]; 150 µM (nominal)): 59.6 RFU and 72.8 RFU and 57.5 RFU and 70.4 RFU
- inhibition of human nSMase2 activity [3]: possible to inhibit enzyme activity; also recorded: inhibition
- solubility [9]: 200 µg/mL (≈ 396 µM)
- IC50 ([10]; Enzyme source: Rat brain): 1 µM
- MOI [10]: Non- competitive
